# Counter-ions that a name gives are not always drawn. Like-named read-outs stand apart in the source and are kept apart here.
# Tests used:
# [1] = Solubility characteristics; type: physicochemical
# [2] = Hygroscopicity of crystals; type: physicochemical
# guinea pigs = assay: Citric acid aerosol method on guinea pigs (antitussive); type: in vivo; settings: orally, citric acid aerosol
# Experimental: The animals were subjected to a 20% citric acid aerosol for 15 minutes.
# The coughs were recorded by a microphone.
# The products were administered intraperitoneally 20 minutes before the exposure to the aerosol.
# Some derivatives were also tested orally.
# in vivo = settings: mouse, in vivo, mice, isotonic aqueous solution
# Experimental: It is determined on mice, the products being administered orally, intraperitoneally, and intraveneously in isotonic aqueous solution.
structure (smiles),measurement,setting,value
"CCC(C(=O)NCCN1CCCC1)c1ccccc1 (stereo not drawn) [F 1419, N(2'-pyrrolidino-ethyl)-α-phenyl-α-ethyl acetamide hydrochloride]",Solubility in N-methyl pyrrolidone,"[1]; N-methyl pyrrolidone, % soluble",7%
same,Solubility in ethanol,"[1]; ethanol, % soluble",15%
same,Solubility in ether,"[1]; ether, in words",insoluble
same,Solubility in propylene glycol,"[1]; propylene glycol, % soluble",25%
same,Solubility in water,"[1]; water, in words",very soluble
same,Hygroscopicity,[2],slightly hygroscopic
same,% decrease in no. coughs in 15 mins.,guinea pigs; 50 mg/kg,-22
same,% decrease in no. coughs in 15 mins.,guinea pigs; 100 mg/kg,-40
same,LD50,"in vivo; ip, intraperitoneal, read-out: DL 50 intraperitoneal",200 mg/kg
same,LD50,"in vivo; iv, intravenous, read-out: DL 50 intravenous",76 mg/kg
same,LD50,"in vivo; po, oral, read-out: DL 50 oral",660 mg/kg
